From US6323219A, “Methods for treating immunomediated inflammatory disorders” (Ortho-McNeil Pharmaceutical, Inc., priority 1999, dated 2001)
Entries after “also recorded” stand apart in the source; their conditions may differ.

T1: Human Skin Chymase (Homo sapiens, UniProt P23946)
T1 construct: purchased Cortex Biochem CP1129; host or cells: human skin
T1 sequence (P23946 22-247): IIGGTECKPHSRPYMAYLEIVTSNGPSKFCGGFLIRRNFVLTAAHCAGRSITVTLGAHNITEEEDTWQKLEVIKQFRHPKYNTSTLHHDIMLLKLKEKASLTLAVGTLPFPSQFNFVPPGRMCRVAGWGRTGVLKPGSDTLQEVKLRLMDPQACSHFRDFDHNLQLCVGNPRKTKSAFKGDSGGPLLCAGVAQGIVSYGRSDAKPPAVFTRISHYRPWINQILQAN


Key:
in vivo = assay: in vivo; parameters: species or system male rats (Long Evans); details: rat, iv
Protocol: Since the compounds of the formula (l) are also potent thrombin inhibitors (see U.S. Pat. No. 5,523,308), an ex vivo thrombin assay was conducted to determine the duration of action of the compounds of Formula I. For this i.v. assay male rats (Long Evans, 350-500 g) were implanted with a teflon cannulae via the femoral artery while under anesthesia (pentobarbital i.p., 35 mg/kg). After surgery, the animals were individually housed in standard cages, fed with rat chow (Hanlan, #8604) and continuously infused with physiological saline to maintain arterial patency, (0.5 mL/h, intra arterial) using a spring-shielded swiveling tether connected to an infusion system. The animals were allowed to recover for at least 24 h after the surgical procedure.
A sample of blood was drawn from the animals 15 min before dosing with the inhibitor (0.25 mL blood is drawn into a syringe containing 0.025 mL of Sigma sodium citrate). The test compound was dispersed in water and delivered to the animal (0.25 mL) via the femoral vein. The inhibitor was given at a concentration (mg/mL) which produced 80% inhibition of VO in a plasma sample at 5 min after infusion. Blood was drawn from the arterial line (blood:sodium citrate, 0.25/0.025 mL ) at regular intervals after dosing (5, 10, 15, 30, 60 and 120 min) and placed in a centrifuge tube. A plasma sample was obtained by centrifuging the blood at 10,000 rpm for 5 min. This sample is analyzed for thrombin inhibition using the chromogenic assay, described below.
The rate of increase in absorbance at 405 nm of synthetic peptides (50 μM Spectozyme® TH (H-D-HHT-Ala-Arg-pNA-2AcOH), American Diagnostica) is measured in the presence of plasma with a microplate reader (Molecular Devices) at 37° C. using an aqueous buffer (10 mM Tris, 10 mM Hepes, 150 mM NaCl, 0.1% PEG; pH 7.4). The buffer was added to the plasma samples (1:1) dilution prior to delivery to the microplate (1:5 and 1:50 for final plasma dilutions of 1:10 and 1:100 respectively) followed by the enzyme (1 nM human α thrombin). Datum was collected over a 30 min period and the initial rate of substrate hydrolysis (V0 (mOD/min)) was calculated with an analysis program (Softmax, Molecular Devices).
The time to half plasma elimination (t 1/2) was calculated from the slope of VO vs. time, using the following equation: […]. These datum are presented in Table L. In Table L, the compound # corresponds to the compound number described in U.S. Pat. No. 5,523,308.

human Lung Tryptase = assay: Tryptase IC50 Method; type: biochemical; details: 37° C., 1.0 nM enzyme, 500 μM substrate
Protocol: The enzyme reaction is started by the addition of enzyme ([E]: 1.0 nM human Lung Tryptase; Cortex Biochem CP3033). Data is collected over a period of 30 min. and the initial rate of substrate hydrolysis (Vo (mOD/min)) is calculated. Inhibition is calculated by comparing to wells containing no inhibitor (vehicle) and IC50 s are determined using a four parameter fit logistics model. […] The enzyme reaction is started by the addition of enzyme ([E]: 10.0 nM Human Skin Chymase; Cortex Biochem CPl 129). Data is collected over a period of 30 min. and the initial rate of substrate hydrolysis (Vo (mOD/min)) is calculated. Inhibition is calculated by comparing to wells containing no inhibitor (vehicle) and IC50 s are determined using a four parameter fit logistics model. Chymase 10 μM Screen Method: The optical density at 405 nm due to hydrolysis of synthetic chromogenic peptide substrates ([S]: 500 μM Suc-Ala-Ala-Pro-Phe-pNA; Bachem L-1400) is measured in the presence and absence of inhibitor compounds of formula (I) with a microplate reader at room temperature. The enzyme reaction is started by the addition of enzyme ([E]: 5.0 nM Human Skin Chymase; Cortex Biochem CP1129), and 3 hours following that addition data is collected. After subtracting background (no enzyme addition), inhibition is calculated by comparing to wells containing no inhibitor (vehicle).

Human Skin Chymase = molecular target: T1, Human Skin Chymase; assay: Chymase 10 μM Screen Method; type: biochemical; details: 10 μM, room temperature, 5.0 nM enzyme, 3 hours; read-out: Chymase % Inhibition (10 μM)
Protocol: The enzyme reaction is started by the addition of enzyme ([E]: 1.0 nM human Lung Tryptase; Cortex Biochem CP3033). Data is collected over a period of 30 min. and the initial rate of substrate hydrolysis (Vo (mOD/min)) is calculated. Inhibition is calculated by comparing to wells containing no inhibitor (vehicle) and IC50 s are determined using a four parameter fit logistics model. […] Data is collected over a period of 30 min. and the initial rate of substrate hydrolysis (Vo (mOD/min)) is calculated. Inhibition is calculated by comparing to wells containing no inhibitor (vehicle) and IC50 s are determined using a four parameter fit logistics model. […] The enzyme reaction is started by the addition of enzyme ([E]: 5.0 nM Human Skin Chymase; Cortex Biochem CP1129), and 3 hours following that addition data is collected. After subtracting background (no enzyme addition), inhibition is calculated by comparing to wells containing no inhibitor (vehicle).

S91 cells = assay: Pigmentation of choleratoxin-induced S91 cells; type: cell-based, mouse
From the text: Indeed, the level of pigmentation of human primary melanocytes or choleratoxin-induced S91 cells, which is reduced by hydroquinone and benzaldehyde, was not affected by Compound I.

[1] = test system: MelanoDerm human epidermal equivalents; details: MelanoDerm equivalents are known to respond; cited from earlier work
[2] = test system: human primary melanocytes; assay: Pigmentation of primary melanocyte cultures; type: cell-based; details: for level of pigmentation, human primary melanocytes: melanocytes alone
[3] = test system: MelanoDerm human epidermal equivalents; assay: Pigmentation of MelanoDerm epidermal equivalents (DOPA, H&E or F&M staining, image analysis); type: cell-based; details: for pigmentation/melanogenesis in epidermal equivalents: MelanoDerm, three days of treatment, stained on fourth day, FIG. 1B, FIG. 2, FIG. 3
Yucatan swine skin = Yucatan swine skin pigmentation, topical, visual/chromameter/histology
From the text: Each compound was applied to two sites on the pig twice daily, five days per week for eight weeks. After eight weeks of treatment, chromameter measurements were taken.
Two sites per concentration were placed on opposite sides of the swine dorsum. Chromameter measurements were taken before treatment started and every two weeks thereafter. Pictures were taken periodically and at the end of the experiment.

[4] = test system: Co-cultures (no K-M contact); assay: Pigmentation of keratinocyte-melanocyte co-cultures without K-M contact; type: cell-based, human; details: Table D; three days, DOPA stained on fourth day
From the text: Since PAR-2 is not expressed in melanocytes, we tested the possible requirement of keratinocyte-melanocyte interactions for the depigmenting effect of Compound I. Primary melanocyte cultures were compared to identical cultures plated under epidermal equivalents (EpiDerm, lacking melanocytes) to create a co-culture with no contact between keratinocytes and melanocytes. These were also compared to MelanoDerm equivalents, where melanocytes are present in the basal layer of the equivalent. Cultures were treated for three days with Compound I, with the PAR-2 agonist SLIGRL, and with the TR agonist TFLLRNPNDK, as set forth in Table D, and DOPA stained on the fourth day. In Table D, keratinocytes are indicated by "K", melanocytes are indicated by "M" and lack of keratinocyte-melanocyte contact is indicated as "no K-M contact". […] In MelanoDerm equivalents, compound I reduced and SLIGRL induced pigmentation, while TFLLRNPNDK had no effect.

[5] = Table D, three days, DOPA stained on fourth day

| half-life (in vivo) | IC50 (human Lung Tryptase) | inhibition at 10 µM (Human Skin Chymase) | Molecule | further results |
| --- | --- | --- | --- | --- |
| 6 min |  |  | N=C(N)NCCC[C@H](NC(=O)[C@@H]1CCCN1C(=O)CC(c1ccccc1)c1ccccc1)C(=O)c1nc2ccccc2s1 [Compound 3] |  |
| 16 min |  |  | CN[C@H](Cc1ccccc1)C(=O)N1CCC[C@H]1C(=O)N[C@@H](CCCNC(=N)N)C(=O)c1nccs1 [Compound 4] |  |
| 18 min |  |  | CN[C@H](Cc1ccccc1)C(=O)N1CCC[C@H]1C(=O)N[C@@H](CCCN=C(N)N)C(=O)c1nc2ccccc2o1 [Compound 5] |  |
| 43 min | 0.0017 µM | 2% | CN[C@H](Cc1ccccc1)C(=O)N1CCC[C@H]1C(=O)N[C@@H](CCCNC(=N)N)C(=O)c1nc2ccc(C(=O)OC)cc2s1 [Compound 12] |  |
| 8 min | 0.0111 µM | 3% | CN[C@H](Cc1ccccc1)C(=O)N1CCC[C@H]1C(=O)N[C@@H](CCCNC(=N)N)C(=O)c1nc2ccc(F)cc2s1 [Compound 17] |  |
| 6 min | 0.0027 µM | 6% | CN[C@H](Cc1c(F)c(F)c(F)c(F)c1F)C(=O)N1CCC[C@H]1C(=O)N[C@@H](CCCNC(=N)N)C(=O)c1nc2ccccc2s1 [Compound 30] |  |
|  | 0.828 µM | 0% | N=C(N)NCCC[C@H](NC(=O)C1CCCC1)C(=O)c1nc2ccccc2s1 [Compound 31] |  |
| 11 min | 0.0151 µM | 4% | CN[C@H](Cc1ccccc1)C(=O)N1CCC[C@H]1C(=O)N[C@@H](CCCNC(=N)N)C(=O)c1nc2ccccc2[nH]1 [Compound 35] |  |
|  | > 10 µM | 37% | CCCC[C@H](NC(=O)[C@@H]1CCCN1C(=O)[C@@H](Cc1ccccc1)NC)C(=O)c1nc2ccccc2s1 [Compound 39] |  |
| 8 min | 0.0337 µM | 4% | CN[C@H](Cc1ccccc1)C(=O)N1CCC[C@H]1C(=O)N[C@@H](CCCNC(=N)N)C(=O)c1nc2c(ccc3ccccc32)s1 [Compound 52] |  |
|  |  | 5% | CN[C@H](Cc1ccccc1)C(=O)N1CCC[C@H]1C(=O)N[C@@H](CCCOC)C(=O)c1nc2ccccc2s1 [Compound 53] |  |
|  |  |  | O=Cc1ccccc1 [benzaldehyde] | level of pigmentation, choleratoxin-induced S91 cells (S91 cells): reduced; pigmentation of epidermal equivalents (known response to whitening agents) [1]: reducing pigmentation; level of pigmentation, human primary melanocytes [2]: reduced |
|  |  |  | Oc1ccc(O)cc1 [hydroquinone] | level of pigmentation, choleratoxin-induced S91 cells (S91 cells): reduced; pigmentation of epidermal equivalents (known response to whitening agents) [1]: reducing pigmentation; level of pigmentation, human primary melanocytes [2]: reduced |
|  |  |  | Hirudin | pigmentation/melanogenesis in epidermal equivalents [3]: no effect on pigmentation |
|  |  |  | SFLLRN [reference compound] | pigmentation/melanogenesis in epidermal equivalents [3]: trend of lightening or reducing pigmentation; effect on skin pigmentation (Yucatan swine skin; 10 μM, twice daily, five days per week, eight weeks): no significant effects |
|  |  |  | TFLLRNPNDK [reference compound] | effect on pigmentation, Co-cultures (no K-M contact) [4]: no effect; pigmentation/melanogenesis in epidermal equivalents [3]: no effect on pigmentation; effect on pigmentation, MelanoDerm (K-M contact) [3, 5]: no effect; effect on pigmentation, Melanocytes (no K) [2, 5]: no effect |
|  |  |  | STI: soybean trypsin inhibitor, available from Sigma (protein, UniProt P01070 25-205, looked up) Trypsin inhibitor A: DFVLDNEGNPLENGGTYYILSDITAFGGIRAAPTGNERCPLTVVQSRNELDKGIGTIISSPYRIRFIAEGHPLSLKFDSFAVIMLCVGIPTEWSVVEDLPEGPAVKIGENKDAMDGWFRLERVSDDEFNNYKLVFCPQQAEDDKCGDIGISIDHDDGTRRLVVSKNKPLVVQFQKLDKESL | pigmentation/melanogenesis in epidermal equivalents [3]: very effective in inhibiting melanogenesis; also recorded: reduces pigmentation; visual lightness of treated sites versus surrounding skin (Yucatan swine skin; twice a day, five days a week, at seven weeks): visually lighter than the surrounding skin |
|  |  |  | Trypsin: Activates TR and PAR-2 (protein, UniProt P00760 24-246, looked up) Serine protease 1: IVGGYTCGANTVPYQVSLNSGYHFCGGSLINSQWVVSAAHCYKSGIQVRLGEDNINVVEGNEQFISASKSIVHPSYNSNTLNNDIMLIKLKSAASLNSRVASISLPTSCASAGTQCLISGWGNTKSSGTSYPDVLKCLKAPILSDSSCKSAYPGQITSNMFCAGYLEGGKDSCQGDSGGPVVCSGKLQGIVSWGSGCAQKNKPGVYTKVCNYVSWIKQTIASN | pigmentation, dose-response ([3]; increasing concentrations, SLIGRL 0, 10 and 50 μM, Compound I 0.1 μM to 1 μM, FIG. 4A): has the same effect |
